Data from article PMC6562422, “Huzhangoside A Suppresses Tumor Growth through Inhibition of Pyruvate Dehydrogenase Kinase Activity” (Cancers, 2019).
Blank lines part the entries; values can stand above or below the molecule they belong to.

Assays:
MDA-MB-231 cells = assay: MTT cell viability assay; format: cell-based, human; conditions: 3 μM, 24 h
PDHK and PDC E2 subunit = biological target: T1, PDHK and PDC E2 subunit (Homo sapiens, UniProt Q15118); assay: PDC subunits and PDHK binding assay; conditions: 500 μM Hu.A, GST-PDHK1 pull-down, HEK293T lysate
T1 construct: expressed in transfected cells; host or cells: HEK293T (GST-PDHK1 transfected; E2 endogenous from HEK293T whole cell lysate)
Experimental: HEK293T cells, transfected with GST-PDHK1 construct, were lysed and incubated with Glutathione Sepharose 4B beads. The beads were washed and HEK293T whole cell lysate was added with/without 500 μM of Hu.A and the samples were analyzed by western blot analysis.

HT-29 cells = assay: MTT cell viability assay; format: cell-based, human; conditions: 3 μM, 24 h
HSC-4 = test system: HSC-4; parameters: method as in PMID 19952458; conditions: read-out: IC50 against human cancer cell line; cited from earlier work
LLC cell allograft = assay: LLC tumor allograft in C57BL/6 mice; format: in vivo
Experimental: LLC cells (5 × 10^5 cells/100 μL PBS) were injected into the dorsal subcutaneous skin of C57BL/6 mice (n = 8 mice per group). The control (untreated) group and Hu.A-treated groups were administered 0 mg/kg and 0.1 mg/kg, 0.5 mg/kg, and 1 mg/kg of Hu.A in 100 μL PBS/20 g via intraperitoneal (i.p.) injection for 14 days, respectively. The mice were killed 14 days after inoculation of LLC cells and the tumors were seceded from the mice and analyzed. The volumes of LLC cell derived-tumors were calculated using the formula ((length × width^2)/2).
For immunohistochemical analysis, the tumor tissues were fixed with 3.7% formalin in PBS and embedded in paraffin. The paraffin sections were incubated with a primary antibody against the Ki-67, a cell proliferation marker, and visualized via Dako EnVision kit (Dako, Jena, Germany). The sections were counterstained with hematoxylin.

DLD-1 cells [1] = assay: MTT cell viability assay; format: cell-based, human
Experimental: (§1) The cytotoxic effect of Hu.A was confirmed using a MTT assay. Briefly, DLD-1 cells (10^5 cells per well) were seeded in a 24-well plate and incubated overnight. The cells were then shifted to serum-free media and treated with Hu.A. MTT solution (2 mg/mL) was then added to the cells. The absorbance of formazan crystals formed were measured using a Spectramax M2 microplate reader (Molecular Devices, Sunnyvale, CA, USA) at 540 nm.

DLD-1 cells [2] = assay: O2 consumption assay; format: cell-based, human; conditions: serum-free medium, 6 h
Experimental: The O2 consumption rate was determined using the Oxygen Consumption Rate Assay Kit (Cayman Chemical, Ann Arbor, MI, USA) following the manufacturer’s protocol. The fluorescence of the oxygen probe was measured using the Spectramax M2 microplate reader at wavelengths of 380/650 nm.

[3] = Blood biochemistry of tumor-bearing mice; format: in vivo, C57BL/6 mice; conditions: serum; for Creatinine: below limit of detection; for BUN: mean ± SD (control 8.6 ± 0.8); for ALT: mean ± SD (control 14.8 ± 2.5); for AST: mean ± SD (control 79.8 ± 35.3)
Experimental: The blood sera were collected from the retro-orbital plexus of tumor-bearing mice treated with Hu.A. The levels of AST, ALT, BUN, and creatinine were analyzed by a commercial service provided by Green Cross Co. (Yongin, Korea).

GST-PDHK1 = biological target: T2, GST-PDHK1 (Homo sapiens, UniProt Q15118); assay: In vitro PDHK kinase assay (GST-PDHK1, recombinant PDHA, western blot); format: biochemical; conditions: phosphorylation of recombinant PDHA by western blot
T2 construct: expressed in transfected cells; host or cells: HEK293T
Experimental: The kinase assay of PDHK1 was carried out as described previously. Briefly, HEK293T cells, transfected with GST-PDHK1 construct, were lysed, and the lysate was incubated with Glutathione Sepharose 4B beads (Amersham Biosciences, Uppsala, Sweden). The beads were washed and recombinant PDHA was added and incubated for 5 min at 30 °C in the kinase buffer. The phosphorylation of PDHA was analyzed by western blot analysis.

A549 = test system: A549; parameters: method as in PMID 19952458; conditions: read-out: IC50 against human cancer cell line; cited from earlier work
LLC cells = assay: MTT cell viability assay; format: cell-based, murine; conditions: 3 μM, 24 h, serum free medium
Experimental: as §1
Supplementary materials Huzhangoside A Suppresses Tumor
Growth through Inhibition of Pyruvate
Dehydrogenase Kinase Activity
Choong-Hwan Kwak, Jung-Hee Lee, Eun-Yeong Kim, Chang Woo Han, Keuk-Jun Kim, Hanna Lee, MyoungLae Cho, Se Bok Jang, Cheorl-Ho Kim, Tae-Wook Chung and Ki-Tae Ha
Figure S1. Hu.A inhibited cell viability and phosphorylation of PDHA in LLC cells. (A) The LLC cells were treated with indicated concentrations of Hu.A in serum free medium for 24 h and MTT assay was performed. The data was indicated as mean ± SD. * p < 0.05 and *** p < 0.001 compared with the control. (B) In serum free condition, the LLC cells were treated with indicated concentrations of Hu.A for 4 h. The levels of phosphor-PDHA and total PDHA were analyzed by Western blotting assay. (C) Schematic diagram of the mechanisms of Hu.A-mediated apoptosis was shown. The red circle and white P indicated phosphates. […]

PDHK1 [4] = biological target: T3, PDHK1 (Homo sapiens, UniProt Q15118); assay: ATP-binding assay; conditions: His-tagged PDHK1 on Ni-NTA beads, 37 °C
T3 construct: made in house; host or cells: Escherichia coli BL21(DE3)
Experimental: The cloned PDHK1 was expressed in Escherichia coli BL21(DE3). The overexpressed protein was purified using affinity chromatography and gel filtration chromatography. The purified His-tagged PDHK1 was bound to Ni-NTA beads in binding buffer (20 mM HEPES-K^+ (pH 7.2) and 0.05% BSA) at 4 °C. The Ni-NTA beads with bound His-tagged PDHK1 were washed with the binding buffer followed by incubation with [α-^32P]ATP, ATP, and Hu.A at 37 °C. The beads were then washed with wash buffer (PBS). The bead-bound PDHK1 protein was achieved by 250 mM imidazole, and its radioactivity was detected by liquid scintillation counting.

HSC-2 = test system: HSC-2; parameters: method as in PMID 19952458; conditions: read-out: IC50 against human cancer cell line; cited from earlier work
Hep3B cells = assay: MTT cell viability assay; format: cell-based, human; conditions: 3 μM, 24 h
DLD-1 cells [5] = assay: Lactate production assay; format: cell-based, human
Experimental: Lactate in the cell culture medium was analyzed by a lactate fluorometric assay kit (Biovision, Milpitas, CA, USA) and measured using the Spectramax M2 microplate reader at 570 nm.

HL-60 = test system: HL-60; parameters: method as in PMID 19952458; conditions: read-out: IC50 against human cancer cell line; cited from earlier work
PDHK1-4 = PDHK1-4 protein expression (western blot) in DLD-1 cells; format: cell-based, human; conditions: serum-free medium, 4 h
Experimental: Figure 2 Hu.A reduced the PDHK1 activity and promoted oxidative phosphorylation (OXPHOS) in DLD-1 cells. (A) In vitro PDHK1 kinase assay was performed. (B, C) DLD-1 cells were treated with Hu.A in serum-free medium for 4 h. The levels of phosphorylated pyruvate dehydrogenase E1α subunit (PDHA) (B), and PDHK1-4 (C) were analyzed using western blot assay. PDHA (B) and GAPDH (C) were used as loading controls. (D) The intensity of bands (PDHK1-4/GAPDH) from three independent experiments was measured and indicated by mean ± SD. (E) DLD-1 cells were treated with Hu.A in serum-free medium for 6 h. O2 consumption rate was measured by using commercially available Oxygen Consumption Rate Assay Kit. (F) Lactate production was measured by lactate fluorometric assay kit (right panel). The data are shown as mean ± SD, respectively. **, p < 0.01 compared with control.
Western blotting assay was carried out as described previously. Briefly, equal amounts (20 μg) of the cell lysates were separated by sodium dodecyl sulfate–polyacrylamide gel electrophoresis and were transferred onto the nitrocellulose membrane (Hybond ECL; GE Healthcare). The membrane was incubated with specific antibodies. The bands of the target proteins were detected using ECL Plus reagent and ImageQuant LAS 4000 (GE Healthcare, Menlo Park, CA, USA).

tumor growth = conditions: JX06 is ref 12; cited from earlier work
PDHK1 [6] = biological target: T3, PDHK1; conditions: cited from earlier work
PDHK1 [7] = biological target: T3, PDHK1; conditions: read-out: IC50 for inhibiting PDHK1 activity; cited from earlier work

T3 sequence (Q15118 29-436): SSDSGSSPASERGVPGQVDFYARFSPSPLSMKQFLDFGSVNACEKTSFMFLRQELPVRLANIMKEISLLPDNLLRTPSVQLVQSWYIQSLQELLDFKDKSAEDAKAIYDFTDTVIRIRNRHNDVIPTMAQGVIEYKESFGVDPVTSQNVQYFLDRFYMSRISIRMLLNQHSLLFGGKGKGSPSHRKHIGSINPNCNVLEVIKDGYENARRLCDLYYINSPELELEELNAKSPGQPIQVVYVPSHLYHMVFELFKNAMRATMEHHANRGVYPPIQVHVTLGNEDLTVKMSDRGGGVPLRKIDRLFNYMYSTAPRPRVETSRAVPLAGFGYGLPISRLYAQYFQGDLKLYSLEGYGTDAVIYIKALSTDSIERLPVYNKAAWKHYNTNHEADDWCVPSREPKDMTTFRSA
T2 sequence (Q15118 29-436): as above
T1 sequence (Q15118 29-436): as above
T1 sequence (P10515 87-647 partner): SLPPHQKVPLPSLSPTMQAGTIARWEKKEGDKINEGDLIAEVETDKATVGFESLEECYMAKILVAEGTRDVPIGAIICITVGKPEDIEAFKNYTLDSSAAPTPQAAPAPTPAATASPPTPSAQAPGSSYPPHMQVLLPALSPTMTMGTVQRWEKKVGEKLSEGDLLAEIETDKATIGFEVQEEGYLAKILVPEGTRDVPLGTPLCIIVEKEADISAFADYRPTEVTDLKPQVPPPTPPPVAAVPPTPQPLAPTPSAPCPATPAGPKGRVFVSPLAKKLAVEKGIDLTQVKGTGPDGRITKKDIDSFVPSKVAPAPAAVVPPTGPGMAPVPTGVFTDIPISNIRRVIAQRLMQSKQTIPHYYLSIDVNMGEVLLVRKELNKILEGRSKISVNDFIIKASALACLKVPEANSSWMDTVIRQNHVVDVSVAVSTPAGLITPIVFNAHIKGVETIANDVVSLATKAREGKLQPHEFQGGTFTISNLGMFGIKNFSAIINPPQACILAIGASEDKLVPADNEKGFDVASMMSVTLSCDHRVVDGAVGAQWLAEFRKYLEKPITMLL

binding of PDHK and PDC E2 subunit (PDHK and PDC E2 subunit): did not significantly affect
Creatinine ([3]; 0.1 mg/kg i.p.): < 0.17 mg/dL
BUN ([3]; 0.1 mg/kg i.p.): 8.8 ± 0.9 mg/dL
Creatinine ([3]; 0.5 mg/kg i.p.): < 0.17 mg/dL
BUN ([3]; 0.5 mg/kg i.p.): 8.9 ± 0.6 mg/dL
Creatinine ([3]; 1 mg/kg i.p.): < 0.17 mg/dL
BUN ([3]; 1 mg/kg i.p.): 8.4 ± 1.0 mg/dL
kinase activity of GST-PDHK1 (GST-PDHK1): significantly inhibited
[α-32P]ATP-binding activity of PDHK1 (PDHK1 [4]): decreased
SMILES: CC1OC(OC2C(OC3CCC4(C)C(CCC5(C)C4CC=C4C6CC(C)(C)CCC6(C(=O)O)CCC45C)C3(C)C)OCC(O)C2O)C(O)C(OC2OCC(O)C(O)C2O)C1O (stereo not drawn) [Hu.A, Huzhangoside A]
cytotoxic effect (MDA-MB-231 cells): more than 80%
cytotoxic effect (HT-29 cells): more than 80%
IC50 (HSC-4): 11700 nM
levels of cleaved forms of caspase-3, -9, and PARP in tumor tissues (LLC cell allograft; 1 mg/kg, western blot): increased
growth of the allograft LLC cells (tumor volume and weight) (LLC cell allograft; 0.1, 0.5 and 1 mg/kg/day i.p., dose-dependent): significantly suppressed
staining of Ki-67 in tumor tissues (LLC cell allograft; immunohistochemistry, Hu.A-treated mice): reduced
phosphor-PDHA levels in tumor tissues (LLC cell allograft; western blot, Hu.A-treated mice): markedly decreased
cytotoxic effect (DLD-1 cells [1]; 3 μM, 24 h): more than 80%
cytotoxic effect of Hu.A after MitoTEMPO pre-treatment (DLD-1 cells [1]; DLD-1, MitoTEMPO 50 μM 1 h pre-treatment, then 3 μM Hu.A 6 h, serum-free): significantly reduced
O2 consumption rate (DLD-1 cells [2]): increased
ALT ([3]; 0.1 mg/kg i.p.): 16.7 ± 2.5 U/L
AST ([3]; 0.1 mg/kg i.p.): 94.5 ± 41.0 U/L
ALT ([3]; 0.5 mg/kg i.p.): 19.2 ± 5.6 U/L
AST ([3]; 0.5 mg/kg i.p.): 87.5 ± 33.8 U/L
ALT ([3]; 1 mg/kg i.p.): 19.6 ± 3.1 U/L
AST ([3]; 1 mg/kg i.p.): 95.2 ± 43.1 U/L
IC50 (A549): 1500 nM
cytotoxic effect (LLC cells): more than 80%
IC50 (HSC-2): 5700 nM
cytotoxic effect (Hep3B cells): more than 80%
secretory lactate levels in media (DLD-1 cells [5]): reduced
IC50 (HL-60): 2300 nM
protein levels of PDHK isozymes (PDHK1-4) (PDHK1-4): did not significantly change

SMILES: S=C(SSC(=S)N1CCOCC1)N1CCOCC1 [JX06]
concentration required for inhibition of tumor growth in in vivo experiments (tumor growth): 40 to 80 mg/kg
concentration administered to suppress the intracellular PDHK1 activity (PDHK1 [6]): 10 µM
IC50 (PDHK1 [7]): 49 nM

SMILES: C[C@@H]1C[C@H]2O[C@@H]2/C=C\C=C\C(=O)Cc2c(Cl)c(O)cc(O)c2C(=O)O1 [radicicol]
concentration administered to suppress the intracellular PDHK1 activity (PDHK1 [6]): 10 µM
